“And” between values parts separate entries of the source, which are not always exact repeats. Identical values can stand only once. Like-named read-outs stand apart in the source and are kept apart here.
Assays:
[1] = tested on: human melanoma cell line WM-266-4; test: Cell proliferation (CelltiterGlo, ray design) in WM-266-4; assay type: cell-based; conditions: single agent, 96 hours, 4-parameter logistic model
Description: (§1) UACC-62 cells were plated at 2500 cells/well in 96-well plates in appropriate culture medium and incubated 6 hours at 37° C., 5% CO2. […] Cell growth was evaluated by measuring intracellular ATP using CelltiterGlo® reagent (Promega) according to the manufacturer's protocol. Briefly, Cell Titer Glo was added to each plate, incubated for 1 hour then luminescent signal was read on the MicroBeta Luminescent plate reader. All plates were run in duplicate. All assays were run at least in duplicate.
(§2) Inhibition of cell growth was estimated after treatment with compound or combination of compounds for four days and comparing the signal to cells treated with vehicle (DMSO).
Growth inhibition percentage (GI %) was calculated according to the following equation: GI %=100*(1−((X−BG)/(TC−BG))
A global non linear mixed model using NLMIXED procedure of SAS V9.2 was applied to fit simultaneously the concentration-responses curves for each ray. The combination index
of each ray i and its 95% confidence interval was then estimated using the following equation: […]
where IC40A and IC40B are the concentrations of compound A and compound B necessary to obtain 40% of inhibition for each compound alone and CA and CB are the concentrations of compound A and compound B in the mixture necessary to obtain 40% of inhibition.
The human melanoma WM-266-4 cell line was purchased at ATCC (Ref number CRL-1676 Batch 3272826). The WM-266-4 cells were cultured in RPMI1640 medium supplemented with 10% FBS and 2 mM L-Glutamine.
Materials and Methods are the same described in example 1.
The human melanoma WM-266-4 cell line was purchased at ATCC (Ref number CRL-1676 Batch 3272826). The WM-266.4 cells were cultured in RPMI1640 medium supplemented with 10% FBS and 2 mM L-Glutamine.

[2] = tested on: human melanoma cell line UACC-62; test: Cell proliferation (CelltiterGlo, ray design) in UACC-62; assay type: cell-based; conditions: single agent, 96 hours, 4-parameter logistic model
Description: The human melanoma UACC-62 cell line was purchased at NCI (Batch 0503000). The UACC-62 cells were cultured in RPMI1640 medium supplemented with 10% FBS and 2 mM L-Glutamine.
They were diluted in cascade, in DMSO and then diluted 50-fold in culture medium containing 10% serum before being added onto cells with a 20-fold dilution factor. The final concentrations tested were defined by Ray design described in Table 1. The DMSO concentration was 0.1% in controls and in all treated wells.
as §1, §2
Growth inhibition percentage (GI %) was calculated according to the following equation: GI %=100*(1−((X−BG)/(TC−BG)) […]

[3] = tested on: human melanoma tumors WM-266.4; conditions: for tolerability (body weight loss): Cpd (2a) 25 and 10 mg/kg qd, Cpd (2b) 100 and 50 mg/kg qd, single agents or combination
[4] = Chemical stability of dosing stock solution; conditions: oral dosing formulation of each compound; in the dark at RT
[5] = tested on: human melanoma tumors UACC-62; test: Antitumor activity against subcutaneous UACC-62 tumors in SCID female mice; conditions: for tolerability (body weight loss): single agents or combination
[6] = tested on: human primary colon tumors CR-IGR-014P; conditions: Ex. 8, Cpd (I) 150 mg/kg bid
PI3K gamma = PI3K gamma (Homo sapiens, UniProt P48736); conditions: cited from earlier work
[7] = Ex. 7, PO d21-31, Cpd (I) 150 mg/kg bid, Cpd (2a) 10 mg/kg qd, alone or combined
[8] = Ex. 5, PO d11-22, Cpd (I) 150 mg/kg bid, Cpd (2a) 10 mg/kg qd, alone or combined
[9] = PO d20-36, Cpd (2a) 10 mg/kg qd, alone or combined
[10] = Ex. 7, Cpd (I) 150 mg/kg bid, Cpd (2b) 50 mg/kg qd, alone or combined, Day 24
[11] = Ex. 7, Cpd (I) 150 mg/kg bid, Cpd (2b) 50 mg/kg qd, alone or combined, Day 27
[12] = Ex. 7, Cpd (I) 150 mg/kg bid, Cpd (2b) 50 mg/kg qd, alone or combined, Day 29
[13] = Ex. 7, Cpd (I) 150 mg/kg bid, Cpd (2b) 50 mg/kg qd, alone or combined, Day 31
[14] = Ex. 7, Cpd (I) 150 mg/kg bid, Cpd (2b) 50 mg/kg qd, alone or combined, Global
[15] = Ex. 7, Cpd (I) 150 mg/kg bid, Cpd (2b) 100 mg/kg qd, alone or combined, Day 24
[16] = Ex. 7, Cpd (I) 150 mg/kg bid, Cpd (2b) 100 mg/kg qd, alone or combined, Day 27
[17] = Ex. 7, Cpd (I) 150 mg/kg bid, Cpd (2b) 100 mg/kg qd, alone or combined, Day 29
[18] = Ex. 7, Cpd (I) 150 mg/kg bid, Cpd (2b) 100 mg/kg qd, alone or combined, Day 31
[19] = Ex. 7, Cpd (I) 150 mg/kg bid, Cpd (2b) 100 mg/kg qd, alone or combined, Global
[20] = Ex. 6, Cpd (I) 151.5 mg/kg bid, Cpd (2b) 50 mg/kg qd, alone or combined, Day 11
[21] = Ex. 6, Cpd (I) 151.5 mg/kg bid, Cpd (2b) 50 mg/kg qd, alone or combined, Day 13
[22] = Ex. 6, Cpd (I) 151.5 mg/kg bid, Cpd (2b) 50 mg/kg qd, alone or combined, Day 15
[23] = Ex. 6, Cpd (I) 151.5 mg/kg bid, Cpd (2b) 50 mg/kg qd, alone or combined, Global
[24] = Ex. 6, Cpd (I) 151.5 mg/kg bid, Cpd (2b) 100 mg/kg qd, alone or combined, Day 11
[25] = Ex. 6, Cpd (I) 151.5 mg/kg bid, Cpd (2b) 100 mg/kg qd, alone or combined, Day 13
[26] = Ex. 6, Cpd (I) 151.5 mg/kg bid, Cpd (2b) 100 mg/kg qd, alone or combined, Day 15
[27] = Ex. 6, Cpd (I) 151.5 mg/kg bid, Cpd (2b) 100 mg/kg qd, alone or combined, Global
[28] = Ex. 6, PO d8-15, Cpd (I) 151.5 mg/kg bid, Cpd (2b) 100 mg/kg qd, alone or combined

Chain of PI3K gamma (P48736 whole entry): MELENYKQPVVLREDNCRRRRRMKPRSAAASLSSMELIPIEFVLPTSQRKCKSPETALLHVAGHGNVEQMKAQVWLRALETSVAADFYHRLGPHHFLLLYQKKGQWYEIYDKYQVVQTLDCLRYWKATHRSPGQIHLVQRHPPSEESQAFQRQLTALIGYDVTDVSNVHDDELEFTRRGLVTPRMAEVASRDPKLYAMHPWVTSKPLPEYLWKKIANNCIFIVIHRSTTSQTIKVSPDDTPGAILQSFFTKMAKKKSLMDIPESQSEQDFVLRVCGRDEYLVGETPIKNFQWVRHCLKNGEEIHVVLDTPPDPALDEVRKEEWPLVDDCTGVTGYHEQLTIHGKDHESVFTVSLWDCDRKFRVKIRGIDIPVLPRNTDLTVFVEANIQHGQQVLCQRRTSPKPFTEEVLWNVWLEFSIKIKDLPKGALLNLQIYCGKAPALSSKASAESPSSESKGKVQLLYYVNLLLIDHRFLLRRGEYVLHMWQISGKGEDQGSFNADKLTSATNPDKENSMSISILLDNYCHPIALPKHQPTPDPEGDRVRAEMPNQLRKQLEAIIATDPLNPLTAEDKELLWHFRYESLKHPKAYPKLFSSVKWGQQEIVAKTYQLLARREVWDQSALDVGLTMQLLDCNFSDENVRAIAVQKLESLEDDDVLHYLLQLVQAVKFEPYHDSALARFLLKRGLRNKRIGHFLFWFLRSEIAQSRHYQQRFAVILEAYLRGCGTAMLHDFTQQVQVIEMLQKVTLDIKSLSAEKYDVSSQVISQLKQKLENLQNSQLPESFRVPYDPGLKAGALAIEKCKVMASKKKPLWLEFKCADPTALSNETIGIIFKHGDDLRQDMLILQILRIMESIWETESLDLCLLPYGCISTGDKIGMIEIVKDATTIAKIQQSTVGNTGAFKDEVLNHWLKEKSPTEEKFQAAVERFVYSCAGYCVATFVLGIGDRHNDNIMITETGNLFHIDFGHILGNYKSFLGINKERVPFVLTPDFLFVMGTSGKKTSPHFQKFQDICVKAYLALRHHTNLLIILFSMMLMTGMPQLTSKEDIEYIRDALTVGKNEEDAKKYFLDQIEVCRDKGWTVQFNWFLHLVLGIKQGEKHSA

| SMILES | Absolute IC40 ([1]; example 3) [µM] | tolerability (body weight loss) ([3]; Ex. 7, Cpd (I) 150 mg/kg bid) | stock solution chemically stable [4] [days] | Tumor volume changes from baseline: Median (nMad) [3, 10] | Tumor volume changes from baseline: Median (nMad) [3, 11] | Tumor volume changes from baseline: Median (nMad) [3, 12] | Tumor volume changes from baseline: Median (nMad) [3, 13] | Tumor volume changes from baseline: Median (nMad) [3, 14] | Tumor volume changes from baseline: Median (nMad) [3, 15] | Tumor volume changes from baseline: Median (nMad) [3, 16] | Tumor volume changes from baseline: Median (nMad) [3, 17] | Tumor volume changes from baseline: Median (nMad) [3, 18] | Tumor volume changes from baseline: Median (nMad) [3, 19] | Tumor volume changes from baseline: Median (nMad) [5, 20] | Tumor volume changes from baseline: Median (nMad) [5, 21] | Tumor volume changes from baseline: Median (nMad) [5, 22] | Tumor volume changes from baseline: Median (nMad) [5, 23] | Tumor volume changes from baseline: Median (nMad) [5, 24] | Tumor volume changes from baseline: Median (nMad) [5, 25] | Tumor volume changes from baseline: Median (nMad) [5, 26] | other results |
| --- | --- | --- | --- | --- | --- | --- | --- | --- | --- | --- | --- | --- | --- | --- | --- | --- | --- | --- | --- | --- | --- |
| Cn1cnc2c(F)c(Nc3ccc(Br)cc3Cl)c(C(=O)NOCCO)cc21 [Compound (2a), 1H-Benzimidazole-6-carboxamide, 5-[(4-bromo-2-chlorophenyl)amino]-4-fluoro-N-(2-hydroxyethoxy)-1-methyl] | 0.033 | induced a higher bwl as compared to the control | 7 |  |  |  |  |  |  |  |  |  |  |  |  |  |  |  |  |  | Absolute IC40 ([2]; example 1): 0.027 µM; Average body weight change in % per mouse at nadir [3, 7]: −10.5%; Drug death (Day of death) [3, 7]: 0/7; day of nadir [3, 7]: 31 days; ΔT/ΔC % (day 31) [3, 7]: 36%; tolerability (body weight loss) ([5]; Ex. 5, Cpd (I) 150 mg/kg bid, Cpd (2a) 25 and 10 mg/kg qd): well tolerated inducing minimal bwl; Average body weight change in % per mouse at nadir [5, 8]: −4.3%; Drug death (Day of death) [5, 8]: 0/7; day of nadir [5, 8]: 21 days; ΔT/ΔC % (day 22) [5, 8]: 35%; tolerability (body weight loss) ([6]; Cpd (2a) 25 and 10 mg/kg qd, single agents or combination): well tolerated inducing minimal bwl; Average body weight change in % per mouse at nadir [6, 9]: −4.2%; Drug death (Day of death) [6, 9]: 0/7; day of nadir [6, 9]: 27 days; ΔT/ΔC % (day 36) [6, 9]: 84% |
| CCCS(=O)(=O)Nc1ccc(F)c(C(=O)c2c[nH]c3ncc(-c4ccc(Cl)cc4)cc23)c1F [Compound (2b), 1-Propanesulfonamide, N-[3-[[5-(4-chlorophenyl)-1H-pyrrolo[2,3-b]pyridin-3-yl]carbonyl]-2,4-difluorophenyl]] |  | well tolerated | 7 | 116 (11.9) | 254 (118.6) | 322 (94.9) | 442 (60.8) | 274 (228.3) | 36 (26.7) | 171 (40)^ | 226 (86)^ | 441 (96.4) | 193.5 (200.2)^ | 62 (16.3) | 157 (132) | 240 (132)^ | 154 (136.4) | 54 (60.8) | 126 (74.1) | 152 (161.6) | Absolute IC40 ([1]; example 4): 0.035 µM; Absolute IC40 ([2]; example 2): 0.018 µM and 0.0177 µM; ΔT/ΔC % (day 31) ([3]; Ex. 7, PO d21-31, Cpd (I) 150 mg/kg bid, Cpd (2b) 50 mg/kg qd, alone or combined): > 40%; ΔT/ΔC % (day 31) ([3]; Ex. 7, PO d21-31, Cpd (I) 150 mg/kg bid, Cpd (2b) 50 mg/kg qd, alone or combined, listed as Cpd. 2b): 59%; ΔT/ΔC % (day 31) ([3]; Ex. 7, PO d21-31, Cpd (I) 150 mg/kg bid, Cpd (2b) 100 mg/kg qd, alone or combined): > 40%; ΔT/ΔC % (day 31) ([3]; Ex. 7, PO d21-31, Cpd (I) 150 mg/kg bid, Cpd (2b) 100 mg/kg qd, alone or combined, listed as Cpd. 2b): 59%; Average body weight change in % per mouse at nadir ([3]; mouse, in vivo): −6.6 (31) %; Tumor volume changes from baseline: Median (nMad) [5, 27]: 98 (89)^; tolerability (body weight loss) ([5]; Ex. 6, Cpd (I) 151.5 mg/kg bid, Cpd (2b) 100 and 50 mg/kg qd): well tolerated inducing minimal bwl; ΔT/ΔC % (day 15) [5, 28]: 20%; Average body weight change in % per mouse at nadir ([5]; mouse, in vivo): −3.7 (13) % and −1.7 (15) % |
| C[C@H]1Cc2ccccc2N1C(=O)Cc1nc(N2CCOCC2)cc(=O)[nH]1 [Compound (I), 2-{2-[(2S)-2-methyl-2,3-dihydro-1H-indol-1-yl]-2-oxoethyl}-6-(morpholin-4-yl)pyrimidin-4(3H)-one] | 0.834 |  | 7 | 54 (53.4) | 132 (62.3) | 162 (47.4) | 272 (20.8) | 138 (100.8) | 54 (53.4) | 132 (62.3) | 162 (47.4) | 272 (20.8) | 138 (100.8) | 54 (62.3) | 145 (71.2) | 303 (63.8) | 145 (89) | 54 (62.3) | 145 (71.2) | 303 (63.8) | IC50 (PI3K gamma): > 10 µM; Tumor volume changes from baseline: Median (nMad) [5, 27]: 145 (89); Average body weight change in % per mouse at nadir [5, 28]: −2.9%; Drug death (Day of death) [5, 28]: 0/7; day of nadir [5, 28]: 15 days; ΔT/ΔC % (day 15) [5, 28]: 39% |

From patent US20140275078A1, “COMPOSITIONS AND METHODS FOR TREATING CANCER USING PI3KB INHIBITOR AND MAPK PATHWAY INHIBITOR, INCLUDING MEK AND RAF INHIBITORS” (SANOFI, priority 2011, published 2014)
